We go through 26 compounds from patent publication US20250145585A1, “HETEROCYCLIC INHIBITORS OF IGF-1R FOR TREATMENT OF DISEASE” (HORIZON THERAPEUTICS IRELAND DAC, priority 2023, published 2025).

SMILES strings stand for the structures.

For this experiment, the target named is T1, IGF-1R (Homo sapiens, UniProt P08069).
T1 construct: expressed in transfected cells
The experiment can be described thus: Example B-2: IGF-1R Assay (PathHunter cell lines, EC80 agonist challenge, chemiluminescent detection). It is filed as cell-based. Conditions: PathHunter cells, compound 60 minutes at 37° C., EC80 agonist 3 hours; read-out: IC50, Biological Activity against IGF-1R (Table B2). Summed up: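 PathHunter cells were pre-incubated with compound for 60 min at 37° C (1% vehicle), then challenged with EC80 agonist for 3 h at room temperature. Chemiluminescent detection after 1 h gave % inhibition relative to EC80 and vehicle controls, from which IC50 was derived.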

T1 sequence (P08069 31-1367): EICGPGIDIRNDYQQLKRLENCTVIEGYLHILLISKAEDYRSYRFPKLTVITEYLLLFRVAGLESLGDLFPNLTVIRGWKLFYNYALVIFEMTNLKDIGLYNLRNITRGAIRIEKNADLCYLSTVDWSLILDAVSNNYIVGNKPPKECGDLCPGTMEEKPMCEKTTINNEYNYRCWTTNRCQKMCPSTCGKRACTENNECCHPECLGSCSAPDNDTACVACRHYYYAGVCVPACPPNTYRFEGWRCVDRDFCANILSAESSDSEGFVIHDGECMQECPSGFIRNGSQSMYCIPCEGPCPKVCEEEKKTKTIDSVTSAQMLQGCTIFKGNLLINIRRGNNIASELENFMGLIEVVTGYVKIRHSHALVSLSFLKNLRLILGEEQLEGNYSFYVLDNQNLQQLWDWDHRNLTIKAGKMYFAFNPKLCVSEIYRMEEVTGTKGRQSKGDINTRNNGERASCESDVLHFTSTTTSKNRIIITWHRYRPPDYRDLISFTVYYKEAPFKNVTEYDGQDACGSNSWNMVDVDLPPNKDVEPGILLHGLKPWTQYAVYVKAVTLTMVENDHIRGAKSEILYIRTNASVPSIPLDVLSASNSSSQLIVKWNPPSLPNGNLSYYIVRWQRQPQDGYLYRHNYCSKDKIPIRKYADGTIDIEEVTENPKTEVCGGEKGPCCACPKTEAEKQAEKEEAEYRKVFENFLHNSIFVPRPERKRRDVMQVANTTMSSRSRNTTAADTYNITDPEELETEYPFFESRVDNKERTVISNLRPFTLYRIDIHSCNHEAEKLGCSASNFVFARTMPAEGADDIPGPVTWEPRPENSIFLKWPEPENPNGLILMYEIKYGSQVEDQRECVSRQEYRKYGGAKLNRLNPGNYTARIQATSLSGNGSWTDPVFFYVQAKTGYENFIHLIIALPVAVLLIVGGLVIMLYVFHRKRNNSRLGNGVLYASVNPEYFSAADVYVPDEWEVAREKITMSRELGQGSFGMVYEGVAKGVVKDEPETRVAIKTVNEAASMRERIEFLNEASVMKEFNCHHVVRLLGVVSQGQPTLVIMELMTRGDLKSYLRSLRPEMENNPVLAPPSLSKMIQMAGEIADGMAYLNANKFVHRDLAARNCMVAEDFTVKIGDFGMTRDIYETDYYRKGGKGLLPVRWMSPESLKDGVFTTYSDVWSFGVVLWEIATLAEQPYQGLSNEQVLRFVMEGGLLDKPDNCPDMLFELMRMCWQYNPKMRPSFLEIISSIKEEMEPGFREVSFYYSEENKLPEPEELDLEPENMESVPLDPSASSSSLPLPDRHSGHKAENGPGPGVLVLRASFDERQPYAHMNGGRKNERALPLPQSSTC

Consider `CC1(C)C(=O)N(c2ccc(C3(C#N)CC34CC4)cc2)C(=O)N1Cc1ccnc2c1CC(=O)N2` (centres unmarked) [Compound 69, 1-(4-(4,4-dimethyl-2,5-dioxo-3-((2-oxo-2,3-dihydro-1H-pyrrolo[2,3-b]pyridin-4-yl)methyl)imidazolidin-1-yl)phenyl)spiro[2.2]pentane-1-carbonitrile], for which the half-inhibitory concentration (IC50) (in general, the concentration that inhibits the measured activity by half) was no more than 500 nM. The value for `CN(C)CCOc1cc(N2C(=O)N(Cc3ccnc(N[C@H]4[C@@H]5COC[C@@H]54)c3)C(C)(C)C2=O)ccc1OC(F)(F)F` [Compound 282, 1-((2-(((1R,5S,6r)-3-oxabicyclo[3.1.0]hexan-6-yl)amino)pyridin-4-yl)methyl)-3-(3-(2-(dimethylamino)ethoxy)-4-(trifluoromethoxy)phenyl)-5,5-dimethylimidazolidine-2,4-dione] was no more than 500 nM; that for `CC(C)Nc1cc(CN2C(=O)N(c3ccc(C4(C#N)CC4(C)C)cc3)C(=O)C2(C)C)ccn1` (centres unmarked) [Compound 145, 1-(4-(3-((2-(isopropylamino)pyridin-4-yl)methyl)-4,4-dimethyl-2,5-dioxoimidazolidin-1-yl)phenyl)-2,2-dimethylcyclopropane-1-carbonitrile] was no more than 500 nM; that for `CC(C)Nc1cc(CN2C(=O)N(c3cnc4c(c3)OCC4(C)C)C(=O)C2(C)C)ccn1` [Compound 193, 3-(3,3-dimethyl-2,3-dihydrofuro[3,2-b]pyridin-6-yl)-1-((2-(isopropylamino)pyridin-4-yl)methyl)-5,5-dimethylimidazolidine-2,4-dione] was 2000 to 10000 nM. For the compound `Cn1cc(CNc2cc(CN3C(=O)N(c4ccc(C5(C(F)(F)F)CC5)cc4)C(=O)C3(C)C)ccn2)cn1` [Compound 169, 5,5-dimethyl-1-((2-(((1-methyl-1H-pyrazol-4-yl)methyl)amino)pyridin-4-yl)methyl)-3-(4-(1-(trifluoromethyl)cyclopropyl)phenyl) imidazolidine-2,4-dione], the IC50 is no more than 500 nM. For `CC1(C)C(=O)N(c2ccc(S(C)(=O)=O)cc2)C(=O)N1Cc1ccnc2c1CC(=O)N2` [Compound 62, 5,5-dimethyl-3-(4-(methylsulfonyl)phenyl)-1-((2-oxo-2,3-dihydro-1H-pyrrolo[2,3-b]pyridin-4-yl)methyl)imidazolidine-2,4-dione] the value was greater than 10000 nM; for `CN1CC(C)(C)c2ccc(N3C(=O)N(Cc4ccnc(N[C@H]5CCOC5)c4)C(C)(C)C3=O)cc21` [Compound 206, (S)-5,5-dimethyl-1-((2-((tetrahydrofuran-3-yl)amino)pyridin-4-yl)methyl)-3-(1,3,3-trimethylindolin-6-yl)imidazolidine-2,4-dione], 500 to 2000 nM; for `CC1(C)C(=O)N(c2ccc(S(=O)(=O)C(F)(F)F)cc2)C(=O)N1Cc1ccnc(N[C@@H]2[C@@H]3COC[C@@H]32)c1` [Compound 335, 1-((2-(((1R,5S,6s)-3-oxabicyclo[3.1.0]hexan-6-yl)amino)pyridin-4-yl)methyl)-5,5-dimethyl-3-(4-((trifluoromethyl)sulfonyl)phenyl) imidazolidine-2,4-dione], 500 to 2000 nM.

In the case of `CC1(C)CN(C(=O)C2CC2)c2cc(N3C(=O)N(Cc4ccnc(N[C@H]5CCOC5)c4)C(C)(C)C3=O)ccc21` [Compound 196, (S)-3-(1-(cyclopropanecarbonyl)-3,3-dimethylindolin-6-yl)-5,5-dimethyl-1-((2-((tetrahydrofuran-3-yl)amino)pyridin-4-yl)methyl)imidazolidine-2,4-dione], the IC50 was no more than 500 nM. The value for `C[C@@H](CC#N)Nc1cc(CN2C(=O)N(c3ccc4c(c3)N(S(C)(=O)=O)CC4(C)C)C(=O)C2(C)C)ccn1` [Compound 215, (S)-3-((4-((3-(3,3-dimethyl-1-(methylsulfonyl)indolin-6-yl)-5,5-dimethyl-2,4-dioxoimidazolidin-1-yl)methyl)pyridin-2-yl)amino)butanenitrile] was no more than 500 nM. In the case of `CC1(C)C(=O)N(c2ccc(S(=O)(=O)C(F)(F)F)cc2)C(=O)N1Cc1ccnc(NC2CC2)c1` [Compound 356, 1-((2-(cyclopropylamino)pyridin-4-yl)methyl)-5,5-dimethyl-3-(4-((trifluoromethyl)sulfonyl)phenyl)imidazolidine-2,4-dione], the IC50 is no more than 500 nM.

In the case of `CC1(C)COc2cc(N3C(=O)N(Cc4ccnc(N[C@H]5[C@@H]6COC[C@@H]65)c4)C(C)(C)C3=O)ccc21` [Compound 229, 1-((2-(((1R,5S,6r)-3-oxabicyclo[3.1.0]hexan-6-yl)amino)pyridin-4-yl)methyl)-3-(3,3-dimethyl-2,3-dihydrobenzofuran-6-yl)-5,5-dimethylimidazolidine-2,4-dione], the IC50 was no more than 500 nM. The value for `CC1(C)C(=O)N(c2ccc(C3(C(F)(F)F)CC3)cc2)C(=O)N1Cc1ccnc(NCc2cnccn2)c1` [Compound 182, 5,5-dimethyl-1-((2-((pyrazin-2-ylmethyl)amino)pyridin-4-yl)methyl)-3-(4-(1-(trifluoromethyl)cyclopropyl)phenyl) imidazolidine-2,4-dione] was no more than 500 nM; that for `CC1(C)C(=O)N(c2ccc3c(c2)N(S(C)(=O)=O)CC32CCC2)C(=O)N1Cc1ccnc2c1CC(=O)N2` [Compound 43, 5,5-dimethyl-3-(1′-(methylsulfonyl)spiro[cyclobutane-1,3′-indolin]-6′-yl)-1-((2-oxo-2,3-dihydro-1H-pyrrolo[2,3-b]pyridin-4-yl)methyl)imidazolidine-2,4-dione] was no more than 500 nM. The value for `Cn1cncc1CNc1cc(CN2C(=O)N(c3ccc(C4(C(F)(F)F)CC4)cc3)C(=O)C2(C)C)ccn1` [Compound 176, 5,5-dimethyl-1-((2-(((1-methyl-1H-imidazol-5-yl)methyl)amino)pyridin-4-yl)methyl)-3-(4-(1-(trifluoromethyl)cyclopropyl)phenyl) imidazolidine-2,4-dione] was no more than 500 nM. For `CC1(C)C(=O)N(c2ccc3c(c2)N(S(C)(=O)=O)CC32CCC2)C(=O)N1Cc1ccnc(N[C@@H]2C[C@@H]2F)c1` [Compound 240, 1-((2-(((1R,2S)-2-fluorocyclopropyl)amino)pyridin-4-yl)methyl)-5,5-dimethyl-3-(1′-(methylsulfonyl)spiro[cyclobutane-1,3′-indolin]-6′-yl)imidazolidine-2,4-dione] the value was no more than 500 nM; for `CC(C)(C)Cn1ccc(N2C(=O)N(Cc3ccnc4c3CC(=O)N4)C(C)(C)C2=O)cc1=O` [Compound 79, 5,5-dimethyl-3-(1-neopentyl-2-oxo-1,2-dihydropyridin-4-yl)-1-((2-oxo-2,3-dihydro-1H-pyrrolo[2,3-b]pyridin-4-yl)methyl)imidazolidine-2,4-dione], greater than 10000 nM; for `CN1C[C@H](Nc2cc(CN3C(=O)N(c4ccc(S(=O)(=O)C(F)(F)F)cc4)C(=O)C3(C)C)ccn2)CC1=O` [Compound 324, (R)-5,5-dimethyl-1-((2-((1-methyl-5-oxopyrrolidin-3-yl)amino)pyridin-4-yl)methyl)-3-(4-((trifluoromethyl)sulfonyl)phenyl) imidazolidine-2,4-dione], 500 to 2000 nM. For the compound `CC1(C)C(=O)N(c2ccc(C3(C(F)(F)F)CC3)cc2)C(=O)N1Cc1ccnc2c1OC[C@@H](CC#N)N2` [Compound 56, (R)-2-(8-((5,5-dimethyl-2,4-dioxo-3-(4-(1-(trifluoromethyl)cyclopropyl)phenyl)imidazolidin-1-yl)methyl)-3,4-dihydro-2H-pyrido[3,2-b][1,4]oxazin-3-yl) acetonitrile], the IC50 is no more than 500 nM. In the case of `[2H]C([2H])([2H])Nc1cc(CN2C(=O)N(c3ccc4c(c3)N(S(C)(=O)=O)CC4(C)C)C(=O)C2(C)C)ccn1` [Compound 247, 3-(3,3-dimethyl-1-(methylsulfonyl)indolin-6-yl)-5,5-dimethyl-1-((2-((methyl-d3)amino)pyridin-4-yl)methyl)imidazolidine-2,4-dione], the IC50 is no more than 500 nM. For `CC(C)OC[C@H](C)Nc1cc(CN2C(=O)N(c3ccc(C4(C(F)(F)F)CC4)cc3)C(=O)C2(C)C)ccn1` [Compound 158, (S)-1-((2-((1-isopropoxypropan-2-yl)amino)pyridin-4-yl)methyl)-5,5-dimethyl-3-(4-(1-(trifluoromethyl)cyclopropyl)phenyl) imidazolidine-2,4-dione] the value was 500 to 2000 nM.

As for `CC1(C)C(=O)N(c2ccc3c(c2)N(C(=O)C2CC2)CC32CC2)C(=O)N1Cc1ccnc2c1CC(=O)N2` [Compound 46, 3-(1′-(cyclopropanecarbonyl)spiro[cyclopropane-1,3′-indolin]-6′-yl)-5,5-dimethyl-1-((2-oxo-2,3-dihydro-1H-pyrrolo[2,3-b]pyridin-4-yl)methyl)imidazolidine-2,4-dione], the half-inhibitory concentration (IC50) is no more than 500 nM. As for `CC1(C)C(=O)N(c2ccc(OC(F)(F)F)c(C#N)c2)C(=O)N1Cc1ccnc2c1CC(=O)N2` [Compound 288, 5-(4,4-dimethyl-2,5-dioxo-3-((2-oxo-2,3-dihydro-1H-pyrrolo[2,3-b]pyridin-4-yl)methyl)imidazolidin-1-yl)-2-(trifluoromethoxy)benzonitrile], the IC50 was greater than 10000 nM.

Regarding `Cn1nc(C(C)(C)C)cc1N1C(=O)N(Cc2ccnc3[nH]ccc23)C(C)(C)C1=O` [Compound 42, 1-((1H-pyrrolo[2,3-b]pyridin-4-yl)methyl)-3-(3-(tert-butyl)-1-methyl-1H-pyrazol-5-yl)-5,5-dimethylimidazolidine-2,4-dione], the IC50 was greater than 10000 nM.

For the compound `CC1(C)CN(S(C)(=O)=O)c2cc(N3C(=O)N(Cc4ccnc(NCc5cc[nH]n5)c4)C(C)(C)C3=O)ccc21` [Compound 245, 1-((2-(((1H-pyrazol-3-yl)methyl)amino)pyridin-4-yl)methyl)-3-(3,3-dimethyl-1-(methylsulfonyl)indolin-6-yl)-5,5-dimethylimidazolidine-2,4-dione], the IC50 was no more than 500 nM. The value for `Cn1nc(C(C)(C)C)cc1N1C(=O)N(Cc2ccnc(NC3CCOCC3)c2)C(C)(C)C1=O` [Compound 260, 3-(3-(tert-butyl)-1-methyl-1H-pyrazol-5-yl)-5,5-dimethyl-1-((2-((tetrahydro-2H-pyran-4-yl)amino)pyridin-4-yl)methyl)imidazolidine-2,4-dione] was 2000 to 10000 nM.
